Our source for the ring closure, overall yield values is PMC9081086, “Stapling strategy enables improvement of antitumor activity and proteolytic stability of host-defense peptide hymenochirin-1B” (RSC Advances, 2018).

A short description of the first series: all-hydrocarbon stapling by ring-closing olefin metathesis between S5/S5 (i,i+4) or R8/S5 (i,i+7) olefinic residues, Grubbs 1st-generation catalyst (10 mM in DCE per text; 6 mM per schemes), 2 x 2 h, on Rink Amide MBHA resin. The conditions noted are these: the molecule shown is the open-chain precursor, 21-membered ring, 1,2-dichloroethane, 35.0 °C, 60 steps.
In turn, “final: H-I-K-L-S-P-[S5]-T-K-D-[S5]-L-K-K-V-L-K-G-[S5]-I-K-G-[S5]-I-A-V-A-K-M-V-NH2; 1st RCM on Fmoc-[S5]-I-K-G-[S5]-I-A-V-A-K-M-V-resin, 2nd RCM on Fmoc-[S5]-T-K-D-[S5]-L-K-K-V-L-K-G-[S5]-I-K-G-[S5]-I-A-V-A-K-M-V-resin (C-terminal S5 pair already stapled)” showed a ring closure, overall yield of 5.43%.

Staying with this series, now noted: the molecule shown is the open-chain precursor, 21-membered ring, 1,2-dichloroethane, 35.0 °C, 4.0 h, 60 steps.
In turn, `C=CCCC[C@](C)(NC(=O)CNC(=O)[C@H](CCCCNC(=O)OC(C)(C)C)NC(=O)[C@@H](NC(=O)[C@H](C)NC(=O)CNC(=O)[C@H](CCCCNC(=O)OC(C)(C)C)NC(=O)[C@H](CC(C)C)NC(=O)[C@@H](NC(=O)[C@H](CCCCNC(=O)OC(C)(C)C)NC(=O)[C@H](CCCCNC(=O)OC(C)(C)C)NC(=O)[C@H](CC(C)C)NC(=O)[C@H](CC(=O)NC(c1ccccc1)(c1ccccc1)c1ccccc1)NC(=O)[C@H](CC(=O)OC(C)(C)C)NC(=O)[C@H](CCCCNC(=O)OC(C)(C)C)NC(=O)[C@@H](NC(=O)[C@H](CCC(=O)OC(C)(C)C)NC(=O)[C@@H]1CCCN1C(=O)[C@H](COC(C)(C)C)NC(=O)[C@H](CC(C)C)NC(=O)[C@H](CCCCNC(=O)OC(C)(C)C)NC(=O)[C@@H](NC(=O)OCC1c2ccccc2-c2ccccc21)[C@@H](C)CC)[C@@H](C)OC(C)(C)C)C(C)C)[C@@H](C)CC)C(=O)N[C@H](C(=O)N[C@@H](C)C(=O)N[C@H](C(=O)N[C@@](C)(CCCC=C)C(=O)N[C@@H](CCCCNC(=O)OC(C)(C)C)C(=O)N[C@@H](CCSC)C(=O)N[C@H](C(N)=O)C(C)C)C(C)C)[C@@H](C)CC` displayed a ring closure, overall yield of 13.1%.

For `C=CCCC[C@](C)(NC(=O)CNC(=O)[C@H](CCCCNC(=O)OC(C)(C)C)NC(=O)[C@@H](NC(=O)[C@](C)(CCCC=C)NC(=O)CNC(=O)[C@H](CCCCNC(=O)OC(C)(C)C)NC(=O)[C@H](CC(C)C)NC(=O)[C@@H](NC(=O)[C@H](CCCCNC(=O)OC(C)(C)C)NC(=O)[C@H](CCCCNC(=O)OC(C)(C)C)NC(=O)[C@H](CC(C)C)NC(=O)[C@H](CC(=O)NC(c1ccccc1)(c1ccccc1)c1ccccc1)NC(=O)[C@H](CC(=O)OC(C)(C)C)NC(=O)[C@H](CCCCNC(=O)OC(C)(C)C)NC(=O)[C@@H](NC(=O)[C@H](CCC(=O)OC(C)(C)C)NC(=O)[C@@H]1CCCN1C(=O)[C@H](COC(C)(C)C)NC(=O)[C@H](CC(C)C)NC(=O)[C@H](CCCCNC(=O)OC(C)(C)C)NC(=O)[C@@H](NC(=O)OCC1c2ccccc2-c2ccccc21)[C@@H](C)CC)[C@@H](C)OC(C)(C)C)C(C)C)[C@@H](C)CC)C(=O)N[C@H](C(=O)N[C@@H](C)C(=O)N[C@H](C(=O)N[C@@H](C)C(=O)N[C@@H](CCCCNC(=O)OC(C)(C)C)C(=O)N[C@@H](CCSC)C(=O)N[C@H](C(N)=O)C(C)C)C(C)C)[C@@H](C)CC`, the ring closure, overall yield was 19.9%.

`C=CCCC[C@](C)(NC(=O)[C@@H](NC(=O)[C@H](C)NC(=O)CNC(=O)[C@H](CCCCNC(=O)OC(C)(C)C)NC(=O)[C@H](CC(C)C)NC(=O)[C@@H](NC(=O)[C@H](CCCCNC(=O)OC(C)(C)C)NC(=O)[C@H](CCCCNC(=O)OC(C)(C)C)NC(=O)[C@H](CC(C)C)NC(=O)[C@H](CC(=O)NC(c1ccccc1)(c1ccccc1)c1ccccc1)NC(=O)[C@H](CC(=O)OC(C)(C)C)NC(=O)[C@H](CCCCNC(=O)OC(C)(C)C)NC(=O)[C@@H](NC(=O)[C@H](CCC(=O)OC(C)(C)C)NC(=O)[C@@H]1CCCN1C(=O)[C@H](COC(C)(C)C)NC(=O)[C@H](CC(C)C)NC(=O)[C@H](CCCCNC(=O)OC(C)(C)C)NC(=O)[C@@H](NC(=O)OCC1c2ccccc2-c2ccccc21)[C@@H](C)CC)[C@@H](C)OC(C)(C)C)C(C)C)[C@@H](C)CC)C(=O)NCC(=O)N[C@@H](C)C(=O)N[C@H](C(=O)N[C@@](C)(CCCC=C)C(=O)N[C@H](C(=O)N[C@@H](C)C(=O)N[C@@H](CCCCNC(=O)OC(C)(C)C)C(=O)N[C@@H](CCSC)C(=O)N[C@H](C(N)=O)C(C)C)C(C)C)[C@@H](C)CC` gave a ring closure, overall yield of 14.1%.

`C=CCCC[C@](C)(NC(=O)[C@H](CC(=O)OC(C)(C)C)NC(=O)[C@H](CCCCNC(=O)OC(C)(C)C)NC(=O)[C@@H](NC(=O)[C@](C)(CCCC=C)NC(=O)[C@@H]1CCCN1C(=O)[C@H](COC(C)(C)C)NC(=O)[C@H](CC(C)C)NC(=O)[C@H](CCCCNC(=O)OC(C)(C)C)NC(=O)[C@@H](NC(=O)OCC1c2ccccc2-c2ccccc21)[C@@H](C)CC)[C@@H](C)OC(C)(C)C)C(=O)N[C@@H](CC(C)C)C(=O)N[C@@H](CCCCNC(=O)OC(C)(C)C)C(=O)N[C@@H](CCCCNC(=O)OC(C)(C)C)C(=O)N[C@H](C(=O)N[C@@H](CC(C)C)C(=O)N[C@@H](CCCCNC(=O)OC(C)(C)C)C(=O)NCC(=O)N[C@@H](C)C(=O)N[C@H](C(=O)N[C@@H](CCCCNC(=O)OC(C)(C)C)C(=O)NCC(=O)N[C@@H](C)C(=O)N[C@H](C(=O)N[C@@H](C)C(=O)N[C@H](C(=O)N[C@@H](C)C(=O)N[C@@H](CCCCNC(=O)OC(C)(C)C)C(=O)N[C@@H](CCSC)C(=O)N[C@H](C(N)=O)C(C)C)C(C)C)[C@@H](C)CC)[C@@H](C)CC)C(C)C` registered a ring closure, overall yield of 6.43%.

`C=CCCC[C@](C)(NC(=O)[C@H](CCCCNC(=O)OC(C)(C)C)NC(=O)[C@@H](NC(=O)[C@H](CCC(=O)OC(C)(C)C)NC(=O)[C@](C)(CCCC=C)NC(=O)[C@H](COC(C)(C)C)NC(=O)[C@H](CC(C)C)NC(=O)[C@H](CCCCNC(=O)OC(C)(C)C)NC(=O)[C@@H](NC(=O)OCC1c2ccccc2-c2ccccc21)[C@@H](C)CC)[C@@H](C)OC(C)(C)C)C(=O)N[C@@H](CC(=O)NC(c1ccccc1)(c1ccccc1)c1ccccc1)C(=O)N[C@@H](CC(C)C)C(=O)N[C@@H](CCCCNC(=O)OC(C)(C)C)C(=O)N[C@@H](CCCCNC(=O)OC(C)(C)C)C(=O)N[C@H](C(=O)N[C@@H](CC(C)C)C(=O)N[C@@H](CCCCNC(=O)OC(C)(C)C)C(=O)NCC(=O)N[C@@H](C)C(=O)N[C@H](C(=O)N[C@@H](CCCCNC(=O)OC(C)(C)C)C(=O)NCC(=O)N[C@@H](C)C(=O)N[C@H](C(=O)N[C@@H](C)C(=O)N[C@H](C(=O)N[C@@H](C)C(=O)N[C@@H](CCCCNC(=O)OC(C)(C)C)C(=O)N[C@@H](CCSC)C(=O)N[C@H](C(N)=O)C(C)C)C(C)C)[C@@H](C)CC)[C@@H](C)CC)C(C)C` yielded a ring closure, overall yield of 11.4%.

Take `C=CCCC[C@](C)(NC(=O)[C@H](CCCCNC(=O)OC(C)(C)C)NC(=O)[C@H](CC(C)C)NC(=O)[C@@H](NC(=O)[C@H](CCCCNC(=O)OC(C)(C)C)NC(=O)[C@H](CCCCNC(=O)OC(C)(C)C)NC(=O)[C@H](CC(C)C)NC(=O)[C@H](CC(=O)NC(c1ccccc1)(c1ccccc1)c1ccccc1)NC(=O)[C@H](CC(=O)OC(C)(C)C)NC(=O)[C@H](CCCCNC(=O)OC(C)(C)C)NC(=O)[C@@H](NC(=O)[C@H](CCC(=O)OC(C)(C)C)NC(=O)[C@@H]1CCCN1C(=O)[C@H](COC(C)(C)C)NC(=O)[C@H](CC(C)C)NC(=O)[C@H](CCCCNC(=O)OC(C)(C)C)NC(=O)[C@@H](NC(=O)OCC1c2ccccc2-c2ccccc21)[C@@H](C)CC)[C@@H](C)OC(C)(C)C)C(C)C)C(=O)N[C@@H](C)C(=O)N[C@H](C(=O)N[C@@H](CCCCNC(=O)OC(C)(C)C)C(=O)N[C@@](C)(CCCC=C)C(=O)N[C@@H](C)C(=O)N[C@H](C(=O)N[C@@H](C)C(=O)N[C@H](C(=O)N[C@@H](C)C(=O)N[C@@H](CCCCNC(=O)OC(C)(C)C)C(=O)N[C@@H](CCSC)C(=O)N[C@H](C(N)=O)C(C)C)C(C)C)[C@@H](C)CC)[C@@H](C)CC`: the ring closure, overall yield turned out to be 18.5%.

The same series, now with this note: the molecule shown is the open-chain precursor, 33-membered ring, 1,2-dichloroethane, 35.0 °C, 4.0 h, 60 steps.
In turn, `C=CCCCCCC[C@@](C)(NC(=O)[C@@H](NC(=O)[C@H](C)NC(=O)CNC(=O)[C@H](CCCCNC(=O)OC(C)(C)C)NC(=O)[C@H](CC(C)C)NC(=O)[C@@H](NC(=O)[C@H](CCCCNC(=O)OC(C)(C)C)NC(=O)[C@H](CCCCNC(=O)OC(C)(C)C)NC(=O)[C@H](CC(C)C)NC(=O)[C@H](CC(=O)NC(c1ccccc1)(c1ccccc1)c1ccccc1)NC(=O)[C@H](CC(=O)OC(C)(C)C)NC(=O)[C@H](CCCCNC(=O)OC(C)(C)C)NC(=O)[C@@H](NC(=O)[C@H](CCC(=O)OC(C)(C)C)NC(=O)[C@@H]1CCCN1C(=O)[C@H](COC(C)(C)C)NC(=O)[C@H](CC(C)C)NC(=O)[C@H](CCCCNC(=O)OC(C)(C)C)NC(=O)[C@@H](NC(=O)OCC1c2ccccc2-c2ccccc21)[C@@H](C)CC)[C@@H](C)OC(C)(C)C)C(C)C)[C@@H](C)CC)C(=O)NCC(=O)N[C@@H](C)C(=O)N[C@H](C(=O)N[C@@H](C)C(=O)N[C@H](C(=O)N[C@@H](C)C(=O)N[C@@](C)(CCCC=C)C(=O)N[C@@H](CCSC)C(=O)N[C@H](C(N)=O)C(C)C)C(C)C)[C@@H](C)CC` came in with a ring closure, overall yield of 7.25%.

For the compound `C=CCCCCCC[C@@](C)(NC(=O)[C@H](CC(=O)OC(C)(C)C)NC(=O)[C@H](CCCCNC(=O)OC(C)(C)C)NC(=O)[C@@H](NC(=O)[C@H](CCC(=O)OC(C)(C)C)NC(=O)[C@@H]1CCCN1C(=O)[C@H](COC(C)(C)C)NC(=O)[C@H](CC(C)C)NC(=O)[C@H](CCCCNC(=O)OC(C)(C)C)NC(=O)[C@@H](NC(=O)OCC1c2ccccc2-c2ccccc21)[C@@H](C)CC)[C@@H](C)OC(C)(C)C)C(=O)N[C@@H](CC(C)C)C(=O)N[C@@H](CCCCNC(=O)OC(C)(C)C)C(=O)N[C@@H](CCCCNC(=O)OC(C)(C)C)C(=O)N[C@H](C(=O)N[C@@H](CC(C)C)C(=O)N[C@@H](CCCCNC(=O)OC(C)(C)C)C(=O)N[C@@](C)(CCCC=C)C(=O)N[C@@H](C)C(=O)N[C@H](C(=O)N[C@@H](CCCCNC(=O)OC(C)(C)C)C(=O)NCC(=O)N[C@@H](C)C(=O)N[C@H](C(=O)N[C@@H](C)C(=O)N[C@H](C(=O)N[C@@H](C)C(=O)N[C@@H](CCCCNC(=O)OC(C)(C)C)C(=O)N[C@@H](CCSC)C(=O)N[C@H](C(N)=O)C(C)C)C(C)C)[C@@H](C)CC)[C@@H](C)CC)C(C)C`, the ring closure, overall yield is 6.51%.
